The results in this text go back to patent US20030166537A1, “Use of GDNF for treating corneal defects” (Biopharm Gesellschaft Zur Biotechnologischen Entwicklung …, priority 1999, published 2003).

The subject of assay [1] is ERK1, ERK2, JNK1 and JNK2. Description: western blot of phosphorylated MAP kinases in cultured human corneal epithelium. To be noted: for phosphorylation of ERK1 and ERK2: 200 ng/ml factor vs serum-free control medium; for phosphorylation of ERK1 and ERK2 / phosphorylation of JNK1/2: human epithelial cells; for phosphorylation of JNK1/2: vs control. The assay is classed as cell-based. The procedure:
(§1) In order to evaluate the effect of GDNF and other neurotrophic factors on the activation of signal transduction pathways in cultured corneal epithelial and stromal keratocytes, western blots were performed for detecting an accumulation of phosphorylated MAP kinases ERK and JNK in the presence of GDNF, NGF and BDNF. Human stromal keratocytes were cultured in RPMI 1640 medium containing L-glutamine (glutaMAX) or DMEM with 10% FBS for one day and starved in serum-free medium for another day. Cultures were then washed with PBS and incubated in serum-free DMEM without additives or with recombinant human GDNF (200 ng/ml), recombinant human NGF (200 ng/ml) and recombinant human BDNF (200 ng/ml) (all obtained from R & D Systems, Mineapolis, Minn., USA) for 30 min. Some cultures were incubated with an inhibitor of MAP kinases (PD 98059, Torcris Cookson Ballwin, Mo., USA) at 100 μM for 1 h prior to exposure to neurotrophines. After washing with PBS, culture cells were solubilized in lysis buffer containing 50 mM Tris-Cl (pH 8.0), 150 mM NaCl, 0.02% sodium azide, 100 μg/ml PMSF, 1% Triton X-100 and a mixture of several protein inhibitors (Complete®, Boehringer Mannheim) (one tablet/50 ml buffer). 50 μg total protein per lane was fractionated by a 10% STS-MOPS NUPAGE Bis-tris gel (NOVEX, San Diego, Calif., USA) and blotted onto nitrocellulose membrane. Membranes were stained with diluted polyclonal antibodies against ERK1, ERK2, JNK1 and JNK2 (Santa Cruz Biotechnology, Santa Cruz, Calif., USA). Also a polyclonal antibody was used which recognizes the […] form of either ERK1 and ERK2 which was raised against the catalytic core of the phosphorylated threonine residue 183 and tyrosine residue 185 of mammalian ERK2. Similarily, a polyclonal antibody recognizing the phosphorylated form of JNK1 and JNK2 was used (both from Promega). In the last step the membranes were visualized with the ECL western blot analysis system (Amersham).

In assay [2] the test system is ERK1, ERK2, JNK1 and JNK2. Description: western blot of phosphorylated MAP kinases in cultured human corneal stromal keratocytes. Type of assay: cell-based. To be noted: for phosphorylation of ERK1 and ERK2: 200 ng/ml factor vs control; for phosphorylation of JNK1: vs serum-free medium. The procedure:
as §1

Another assay addresses T1, Ret (Homo sapiens, UniProt P07949).
T1 construct: The level of phosphorylated Ret (approximately 150 kD) in cultured corneal epithelial cells (control) was low prior to addition of GDNF; endogenous in cells; host or cells: SV40-transformed human corneal epithelial cell line (Araki-Sasaki et al., 1995)
Description: immuno-precipitation and western blot of tyrosine-phosphorylated Ret in cultured corneal epithelial cells. Type of assay: cell-based. To be noted: cells pretreated with herbimycin A, then GDNF 10 minutes.

Assay [3] concerns FAK, Pyk2, cRaf, MEK1, Erk 1 and 2, Elk, RSK. Description: western blot of phosphorylated intracellular signaling proteins in corneal epithelial cells. The assay is classed as cell-based, human. To be noted: preincubation with herbimycin A for two hours. On the procedure: In order to investigate which protein kinase cascades are activated by GDNF and artemin, corneal epithelial cells from the cell line were seeded at a density of 5×10^5 cells/75 cm^2 and cultured in SHEM with 10% FBS for one day. Cultures were then washed with PBS and incubated in serum-free SHEM without additives or with GDNF (200 ng/ml) or with artemin (250 ng) for 10 to 40 minutes. After washing with PBS, cultured cells were solubilized in lysis buffer containing 50 mM Tris2Cl (pH8.0), 150 mM NaCl, 0.02% sodium azide, 100 μg/ml phenylmethylsulfonyl fluoride, 1 mM Na3VO4, 1% Triton X-100 and a mixture of several protease inhibitors [complete™, Boehringer Mannheim (1 tablet/30 ml buffer)]. 80 μg total protein per lane was fractionated by NuPAGE 10% SDS-MOPS-Bis-Tris gel or NuPAGE 3-8% Tris-acetate gel (all from NOVEX, San Diego, Calif.) and blotted onto a nitrocellulose membrane. Phosphorylated proteins were detected with phospho-specific antibodies and visualized with the ECL western blot analysis system (Amersham). Antibodies against phospho-Raf(ser259), phospho-MEK1/2(ser217/221), phospho-MAPK (Erk1/2) (thr202/tyr204), phospho-p90 ribosomal S6 kinase (RSK) (ser381) and phospho-Elk-1(ser383) were obtained from New England Biolabs (Beverly, Mass.). Antibody against phospho-FAK (tyr397/tyr407/tyr576/tyr577/tyr861/tyr925) and phospho-Pyk2 (tyr402/tyr579/tyr/580/tyr881) were purchased from Biosource (Camarillo, Calif., USA). A monoclonal antibody against phospho-tyrosine came from Sigma (Deisenhofen, Germany).

A further assay deals with corneal epithelial cells. Description: in vitro wound healing model with herbimycin A. The assay is classed as cell-based. To be noted: 10 μM Herbimycin A in presence of 250 ng/ml GDNF; 18 hours. The procedure: (§2) For in vitro wound healing assays primary corneal epithelial cells and cells from the corneal epithelial cell line were seeded at a density of 5×10^5 onto 60 mm plastic dishes with 2 mm grid (Sarstedt, Numbrecht, Germany) and cultured for 2 days until subconfluency. For experiments with artemin primary cultured rabbit corneal epithelial cells were used. These cells had been isolated with Dispase (1,2 U/ml) and trypsin/EDTA. Rabbit cells had been cultured in medium 500 with additives (Cascade Biologies).
The cell layer was injured under the microscope by inducing several parallel scratches with a soft plastic cell scrubber (Falcon, Becton and Dickinson, Heidelberg, Germany). The tip of the scrubber was cut and measured about 1 mm and consequently the width of the scratch in the cell layer was also about 1 mm. Selected areas in the dishes were marked with a very fine marker pen and consecutive images were taken at different time points at 5×magnification under an inverted phase contrast microscope (Axiovert 25, Zeiss, Jena, Germany) equipped with a video camera. […] For each condition four representative areas were evaluated within three dishes. […] 18 hours later the mean diameter of the same scratch was calculated again and expressed in percent of the diameter at the beginning of the experiment. […]

Assay [4] concerns primary rabbit corneal epithelial cells. Description: single cell clonal growth assay (colony formation, clonal proliferation). To be noted: 10 ng/ml; day 6; control 40±20. Type of assay: cell-based. An excerpt:
In order to evaluate the effect of GDNF on corneal proliferation, recombinant human GDNF was used (R&D, Minneapolis, Minn., USA). For the evaluation of the effect on corneal epithelial proliferaton a single cell clonal growth model was utilized which allows to determine the effect of the given growth factor on both colony formation as well as clonal expansion (Kruse et al., 1991). New Zealand white rabbits were housed and treated according to the ARVO Resolution of Animals in Research and under observation of German Federal Laws and the laws of the State of Baden-Württemberg. Prior to sacrifice with an intravenous overdose of pentobarbital, they received an intramuscular injection of xylazine hydrochloride and ketamine hydrochloride. The details of the clonal growth assay are described in Kruse et al. (1991). 5000 viable cells were seeded in each 16 mm dish in serum-free medium MCDB 151 with a supplement (S) of insulin (5 μg/ml), transferrin (5 μg/ml), selenium (5 ng/ml) and hydrocortisone (5 μg/ml) (all from Sigma, Deisenhofen, Germany). […] This quantification was facilitated by the use of dishes which contained a grit on the bottom which is roughly 2 mm wide (from Sarstedt, Newton, N.C., USA). For data collection the entire surface area of four randomly selected dishes for each condition was screened. Furthermore, the number of cells per colony was determined in 75 randomly selected colonies for each condition. Furthermore, the total number of cells/dish was calculated in order to carry out an evaluation for artemin. In order to stimulate the cellular proliferation, GDNF (50 or 200 ng/ml) or artemin (250 ng/ml) was added to the medium. In order to estimate the rate of proliferation after 12 days (a time when neighbouring colonies started to grow into each other and, therefore, prevented numerical quantification) dishes were fixed in −20° C. methanol and stained with methylene blue.
All experiments examining the effect of GDNF on corneal proliferation were performed in triplicate with cells from different donors. The influence of growth factor on colony formation, colony size and cell number was studied using one-way analysis of variance. […] Student's t-test was employed to determine which differences were significant after analysis of variance.

Assay [5] has as its system primary human corneal epithelial cells. Description: in vitro wound healing assay (scratch wound), primary cells. Type of assay: cell-based. To be noted: 18 h, control less than 10%. The procedure: as §2
(§3) The cell layer was injured under the microscope by inducing several parallel scratches with a soft plastic cell scrubber (Falcon, Becton and Dickinson, Heidelberg, Germany). The tip of the scrubber was cut and measured about 1 mm and consequently the width of the scratch in the cell layer was also about 1 mm. Selected areas in the dishes were marked with a very fine marker pen and consecutive images were taken at different time points at 5×magnification under an inverted phase contrast microscope (Axiovert 25, Zeiss, Jena, Germany) equipped with a video camera. Following the experimental injury dishes were incubated in SHEM medium either containing no growth factors (control) or containing either GDNF (250 ng/ml) (recombinant human GDNF expressed in E. coli), NGF (250 ng/ml) (Boehringer Mannheim, Germany) or EGF ([…]). For experiments investigating artemin cells were cultured in medium 500 without additives and 250 ng artemin was added. For each condition four representative areas were evaluated within three dishes. The mean diameter of the scratch in each representative area was set as 100% at the beginning of the experiment. 18 hours later the mean diameter of the same scratch was calculated again and expressed in percent of the diameter at the beginning of the experiment.

In assay [6] the test system is corneal epithelial cells from the SV40 transformed cell line. Description: in vitro wound healing assay (scratch wound), cell line. To be noted: 18 h, control 20%±4.5. The assay is classed as cell-based, human. The procedure: as §2, §3
Assay [7] relates to primary rabbit corneal epithelial cells. Description: in vitro wound healing assay (scratch wound), artemin. The assay is classed as cell-based. To be noted: 10 ng/ml; within 6 h; vs control. On the procedure: as §2
The cell layer was injured under the microscope by inducing several parallel scratches with a soft plastic cell scrubber (Falcon, Becton and Dickinson, Heidelberg, Germany). The tip of the scrubber was cut and measured about 1 mm and consequently the width of the scratch in the cell layer was also about 1 mm. Selected areas in the dishes were marked with a very fine marker pen and consecutive images were taken at different time points at 5×magnification under an inverted phase contrast microscope (Axiovert 25, Zeiss, Jena, Germany) equipped with a video camera. […] For each condition four representative areas were evaluated within three dishes. […] 18 hours later the mean diameter of the same scratch was calculated again and expressed in percent of the diameter at the beginning of the experiment.

T1 sequence (P07949 29-1114): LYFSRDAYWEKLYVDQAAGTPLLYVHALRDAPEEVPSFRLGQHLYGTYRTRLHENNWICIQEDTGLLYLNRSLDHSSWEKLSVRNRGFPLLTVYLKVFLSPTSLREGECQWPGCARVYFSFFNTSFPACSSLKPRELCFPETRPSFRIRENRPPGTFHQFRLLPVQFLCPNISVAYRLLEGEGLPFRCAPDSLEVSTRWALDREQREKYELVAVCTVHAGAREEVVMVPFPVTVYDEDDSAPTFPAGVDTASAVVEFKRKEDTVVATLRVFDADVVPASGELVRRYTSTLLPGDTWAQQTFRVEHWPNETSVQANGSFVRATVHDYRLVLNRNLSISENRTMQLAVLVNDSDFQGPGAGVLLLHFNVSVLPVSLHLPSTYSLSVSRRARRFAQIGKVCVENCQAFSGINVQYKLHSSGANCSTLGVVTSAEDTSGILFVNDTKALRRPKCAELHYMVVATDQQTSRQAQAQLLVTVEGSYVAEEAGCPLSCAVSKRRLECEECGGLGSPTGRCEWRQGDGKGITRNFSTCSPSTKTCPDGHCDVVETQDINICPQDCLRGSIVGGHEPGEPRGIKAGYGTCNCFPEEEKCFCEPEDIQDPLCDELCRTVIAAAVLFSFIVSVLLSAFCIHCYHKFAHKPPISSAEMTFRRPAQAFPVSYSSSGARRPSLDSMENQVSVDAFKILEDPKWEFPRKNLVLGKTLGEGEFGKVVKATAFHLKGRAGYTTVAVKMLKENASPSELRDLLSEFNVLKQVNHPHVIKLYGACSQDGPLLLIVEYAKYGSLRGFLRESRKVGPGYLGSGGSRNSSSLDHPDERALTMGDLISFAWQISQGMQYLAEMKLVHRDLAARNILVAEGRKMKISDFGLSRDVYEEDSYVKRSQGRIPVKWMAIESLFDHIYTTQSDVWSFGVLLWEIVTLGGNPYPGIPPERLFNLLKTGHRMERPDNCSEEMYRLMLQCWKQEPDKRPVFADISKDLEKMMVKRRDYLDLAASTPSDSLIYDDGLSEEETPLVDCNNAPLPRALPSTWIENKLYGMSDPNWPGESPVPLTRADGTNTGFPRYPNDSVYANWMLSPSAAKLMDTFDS

In the case of `COc1cccc(-c2cc(=O)c3ccccc3o2)c1N` [PD 98059, reference compound], in [1] (PD 98059 100 μM 1 h before BDNF 200 ng/ml, epithelial cells), the “effect on BDNF-induced phosphorylation of ERK1 and ERK2” value was “not inhibited”. Besides, the “effect on GDNF-induced phosphorylation of ERK1 and ERK2” value in assay [1] (PD 98059 100 μM 1 h before GDNF 200 ng/ml, epithelial cells) is listed as “prevented”. Besides, the “effect on NGF-induced phosphorylation of ERK1 and ERK2” value in assay [1] (PD 98059 100 μM 1 h before NGF 200 ng/ml, epithelial cells) is “prevented”. Further, the “effect on phosphorylation of ERK1 in presence of BDNF” value in assay [2] (PD 98059 with BDNF 200 ng/ml) is “remained unchanged”. Also, the “effect on GDNF-induced phosphorylation of ERK1” value in [2] (PD 98059 with GDNF 200 ng/ml) was “inhibited”. For the same molecule, in assay [2] (PD 98059 with NGF 200 ng/ml), the “effect on NGF-induced phosphorylation of ERK1” value is listed as “inhibited”.

`CO[C@H]1[C@@H](OC)C[C@H](C)[C@@H](OC)C2=CC(=O)C=C(NC(=O)/C(C)=C/C=C\[C@H](OC)[C@@H](OC(N)=O)/C(C)=C/[C@@H]1C)C2=O` [herbimycin A, reference compound]: at Ret, the “GDNF-dependent tyrosine phosphorylation of Ret” value was “specifically inhibited”. In assay [3], the “GDNF-dependent phosphorylation of Erk” value is on record as “significantly decreased”, the “GDNF-dependent phosphorylation of FAK” value was “significantly decreased” and the “GDNF-dependent phosphorylation of cRaf” value was “significantly decreased”. In the assay with corneal epithelial cells, the wound gap closed was 19.2±5.5%.

For the molecule “EGF: growth factor used as positive control at 10 ng/ml”, the “total number of colonies” value in [4] came out at 58±18. The “gap in the cell monolayer filled” value in assay [5] (10 ng/ml) is given as 19.0%±8.6; in assay [6] (10 ng/ml), 44.6±9%. The “in vitro wound healing” value in assay [7] is listed as “significant increase”.

On to “NGF: recombinant human NGF, neurotrophic factor used as comparison / positive control”, for which, in assay [1], the “phosphorylation of ERK1 and ERK2” value is recorded as “increased”; the “phosphorylation of JNK1/2” value is reported as “not induced”. Besides, in [2], the “activated JNK2” value is on record as “not induced”; the “phosphorylation of ERK1 and ERK2” value was “induced”; the “phosphorylation of JNK1” value is on record as “weakly induced”. Moreover, in assay [5] (250 ng/ml), the “gap in the cell monolayer filled” value was 19.6%±3.1. In addition, the “gap in the cell monolayer filled” value in [6] (250 ng/ml) is 27%±7.1.

B1: BDNF: recombinant human BDNF, neurotrophic factor used for comparison (protein, UniProt P23560 19-247, looked up)
Neurotrophic factor BDNF …: APMKEANIRGQGGLAYPGVRTHGTLESVNGPKAGSRGLTSLADTFEHVIEELLDEDQKVRPNEENNKDADLYTSRVMLSSQVPLEPPLLFLLEEYKNYLDAANMSMRVRRHSDPARRGELSVCDSISEWVTAADKKTAVDMSGGTVTVLEKVPVSKGQLKQYFYETKCNPMGYTKEGCRGIDKRHWNSQCRTTQSYVRALTMDSKKRIGWRFIRIDTSCVCTLTIKRGR
As to B1, in assay [1], the “phosphorylation of ERK1 and ERK2” value was “increased”; the “phosphorylation of JNK1/2” value is “not induced”. Also, in assay [2], the “activated JNK2” value is on record as “not induced”; the “phosphorylation of ERK1 and ERK2” value is listed as “did not induce”; the “phosphorylation of JNK1” value is given as “weakly induced”.
